Data set [1] addresses T1, Histone-lysine N-methyltransferase EHMT2 (Homo sapiens, UniProt Q96KQ7).
T1 sequence (Q96KQ7 whole entry): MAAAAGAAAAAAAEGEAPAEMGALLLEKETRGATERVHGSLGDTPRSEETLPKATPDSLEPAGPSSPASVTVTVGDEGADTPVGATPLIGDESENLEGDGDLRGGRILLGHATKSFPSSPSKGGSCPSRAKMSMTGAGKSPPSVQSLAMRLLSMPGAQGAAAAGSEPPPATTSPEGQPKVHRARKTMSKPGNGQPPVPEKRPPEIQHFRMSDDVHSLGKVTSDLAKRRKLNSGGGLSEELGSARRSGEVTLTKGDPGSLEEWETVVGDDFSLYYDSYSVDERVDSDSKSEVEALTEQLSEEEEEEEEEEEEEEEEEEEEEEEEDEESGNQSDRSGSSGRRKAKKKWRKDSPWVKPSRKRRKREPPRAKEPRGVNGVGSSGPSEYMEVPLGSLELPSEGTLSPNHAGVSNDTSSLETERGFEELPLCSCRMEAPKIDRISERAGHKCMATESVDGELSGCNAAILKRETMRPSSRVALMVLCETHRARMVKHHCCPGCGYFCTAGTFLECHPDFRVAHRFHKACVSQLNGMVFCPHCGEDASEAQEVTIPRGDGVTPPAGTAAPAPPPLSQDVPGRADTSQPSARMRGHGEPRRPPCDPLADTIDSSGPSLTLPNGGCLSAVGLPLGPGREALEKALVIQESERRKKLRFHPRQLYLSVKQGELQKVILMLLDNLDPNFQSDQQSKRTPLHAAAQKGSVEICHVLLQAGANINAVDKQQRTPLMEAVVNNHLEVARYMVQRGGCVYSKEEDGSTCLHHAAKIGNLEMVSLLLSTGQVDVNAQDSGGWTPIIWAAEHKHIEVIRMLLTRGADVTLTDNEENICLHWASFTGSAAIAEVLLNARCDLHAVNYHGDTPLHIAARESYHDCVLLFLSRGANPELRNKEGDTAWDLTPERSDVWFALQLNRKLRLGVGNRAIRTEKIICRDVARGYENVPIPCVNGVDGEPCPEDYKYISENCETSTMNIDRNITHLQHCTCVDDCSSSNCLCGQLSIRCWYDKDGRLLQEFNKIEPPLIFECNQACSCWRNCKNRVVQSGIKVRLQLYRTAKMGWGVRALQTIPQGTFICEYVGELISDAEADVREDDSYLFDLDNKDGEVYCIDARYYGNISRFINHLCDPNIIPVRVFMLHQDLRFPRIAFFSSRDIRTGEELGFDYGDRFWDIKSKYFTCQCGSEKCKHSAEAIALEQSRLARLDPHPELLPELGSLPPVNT
Description: Inhibition of lysine methyltransferase G9a in human MDA-MB-231 cells assessed as reduction of H3K9me2 cellular level by immunofluorescence in-cell Western assay

Data set [2] concerns the target T1, Histone-lysine N-methyltransferase EHMT2. This is another data set of the same source.
Description: Inhibition of lysine methyltransferase G9a (unknown origin) using [3H]-SAM as substrate after 0.25 hrs by scintillation proximity assay
The next data set concerns MDA-MB-231. As to the kind of experiment: cells. The following applies: Homo sapiens, MDA-MB-231, 48 h.
For another data set, the system named is Liver. As to the kind of experiment: Half life in mouse liver microsomes. In kind it is ADME, Microsome. On the technique in general: Microsomes from liver hold many membrane-bound enzymes, among them those of drug oxidation.
Data set [3] relates to Plasma. As to the kind of experiment: Cmax in Swiss albino mouse plasma at 5 mg/kg, ip. On the set-up: dose 5 mg/kg, route intraperitoneal. The following applies: in vivo. The data set is classed as ADME, organism-based.
The subject of data set [4] is Plasma. As to the kind of experiment: AUC (0 to 24 hrs) in Swiss albino mouse plasma at 5 mg/kg, ip. On the set-up: time < 24 hr, dose 5 mg/kg, route intraperitoneal. The following applies: in vivo. The data set is classed as ADME, organism-based.
The test system of another data set is U2OS. The data set can be described thus: Cytotoxicity against human U2OS cells after 48 hrs by Alamar Blue assay. The data set is classed as cell-based. For orientation: Alamar Blue is a resazurin reagent that responds to reducing activity.
For another data set, the system named is PC-3. As to the kind of experiment: Cytotoxicity against human PC3 cells after 48 hrs by Alamar Blue assay. The following applies: PC-3, 48 h. In kind it is cell-based.
Data set [5] has as its target T2, Alpha-1D adrenergic receptor (Homo sapiens, UniProt P25100).
T2 sequence (P25100 whole entry): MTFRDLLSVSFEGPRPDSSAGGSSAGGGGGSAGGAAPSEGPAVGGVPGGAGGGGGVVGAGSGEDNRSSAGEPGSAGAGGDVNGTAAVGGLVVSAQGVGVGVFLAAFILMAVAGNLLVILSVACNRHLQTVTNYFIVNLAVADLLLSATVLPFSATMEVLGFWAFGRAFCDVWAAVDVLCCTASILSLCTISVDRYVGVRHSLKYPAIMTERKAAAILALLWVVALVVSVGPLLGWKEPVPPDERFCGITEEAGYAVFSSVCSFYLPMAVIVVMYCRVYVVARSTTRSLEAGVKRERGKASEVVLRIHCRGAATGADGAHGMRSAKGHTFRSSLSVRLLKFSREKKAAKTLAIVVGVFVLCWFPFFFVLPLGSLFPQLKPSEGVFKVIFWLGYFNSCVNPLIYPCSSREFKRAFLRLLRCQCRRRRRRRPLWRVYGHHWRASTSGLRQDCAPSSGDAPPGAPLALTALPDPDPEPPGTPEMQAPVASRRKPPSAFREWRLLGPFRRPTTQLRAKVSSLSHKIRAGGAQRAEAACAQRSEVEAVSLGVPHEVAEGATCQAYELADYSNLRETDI
The data set can be described thus: Binding affinity to adrenergic alpha1D receptor (unknown origin) by radioligand binding assay.

Data set [6] can be described thus: AUC (0 to 24 hrs) in Swiss albino mouse brain at 5 mg/kg, ip. In kind it is ADME, organism-based. On the set-up: time < 24 hr, dose 5 mg/kg, route intraperitoneal.
The subject of a further data set is PANC-1. As to the kind of experiment: Cytotoxicity against human PANC1 cells after 48 hrs by Alamar Blue assay. The data set is classed as cell-based. The following applies: PANC-1, 48 h.
Another data set relates to Nucleic Acid. As to the kind of experiment: Ratio of drug level in brain to plasma in Swiss albino mouse at 5 mg/kg, ip. In kind it is ADME, organism-based. On the set-up: dose 5 mg/kg, route intraperitoneal.
Data set [7] in a line: Cmax in Swiss albino mouse brain at 5 mg/kg, ip. In kind it is ADME, organism-based. On the set-up: dose 5 mg/kg, route intraperitoneal.
The target of data set [8] is T3, Alpha-2C adrenergic receptor (Homo sapiens, UniProt P18825).
T3 sequence (P18825 whole entry): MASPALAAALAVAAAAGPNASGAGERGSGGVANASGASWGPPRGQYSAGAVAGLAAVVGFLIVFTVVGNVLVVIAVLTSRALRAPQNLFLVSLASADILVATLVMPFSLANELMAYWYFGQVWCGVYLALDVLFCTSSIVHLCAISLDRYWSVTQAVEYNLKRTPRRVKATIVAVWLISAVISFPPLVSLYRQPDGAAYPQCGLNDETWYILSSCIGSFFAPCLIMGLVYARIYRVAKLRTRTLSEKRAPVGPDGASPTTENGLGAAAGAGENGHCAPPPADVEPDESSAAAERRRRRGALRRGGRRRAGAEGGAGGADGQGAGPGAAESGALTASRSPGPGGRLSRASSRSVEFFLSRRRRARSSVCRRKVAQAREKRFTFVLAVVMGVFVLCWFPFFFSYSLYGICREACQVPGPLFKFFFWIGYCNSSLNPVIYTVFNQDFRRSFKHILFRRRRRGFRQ
The data set can be described thus: Binding affinity to adrenergic alpha2C receptor (unknown origin) by radioligand binding assay.

The nature of data set [9]: Binding affinity to sigma 2 receptor (unknown origin) by radioligand binding assay. On the set-up: species or system Homo sapiens.
The target of another data set is Histamine H3 receptor (Homo sapiens, UniProt Q9Y5N1). The data set can be described thus: Binding affinity to histamine H3 receptor (unknown origin) by radioligand binding assay.

The results in this text go back to ChEMBL document CHEMBL2440019, “Discovery of an in vivo chemical probe of the lysine methyltransferases G9a and GLP” (J Med Chem, 2013).

Molecules are shown by their SMILES.

Sequence of Histamine H3 receptor (Q9Y5N1 whole entry): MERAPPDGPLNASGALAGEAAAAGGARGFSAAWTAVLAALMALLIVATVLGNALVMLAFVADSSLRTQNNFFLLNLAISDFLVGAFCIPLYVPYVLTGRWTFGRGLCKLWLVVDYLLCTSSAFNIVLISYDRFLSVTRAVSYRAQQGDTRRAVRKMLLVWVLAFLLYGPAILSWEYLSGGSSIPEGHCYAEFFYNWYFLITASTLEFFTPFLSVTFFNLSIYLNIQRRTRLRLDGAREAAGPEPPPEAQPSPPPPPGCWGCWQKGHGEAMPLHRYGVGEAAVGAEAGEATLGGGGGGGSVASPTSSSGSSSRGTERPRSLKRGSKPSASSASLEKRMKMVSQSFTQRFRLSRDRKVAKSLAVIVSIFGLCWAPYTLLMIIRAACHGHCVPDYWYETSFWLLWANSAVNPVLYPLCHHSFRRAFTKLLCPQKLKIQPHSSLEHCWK
Description for MDA-MB-231: Cytotoxicity against human MDA-MB-231 cells after 48 hrs by Alamar Blue assay

In general, IC50 refers to the concentration needed to halve the response being measured. In general, EC50 refers to the concentration that produces a half-maximal response. Lower therefore signals an effect from little substance. On to `COc1cc2c(NC3CCN(C4CC4)CC3)nc(N3CCS(=O)(=O)CC3)nc2cc1OCCCN1CCCC1`, for which the IC50 in data set [1] came out at 590 nM; in [2], 4 nM. Besides, the EC50 in the data set on MDA-MB-231 is over 50000 nM.

`COc1cc2c(NC3CCN(C(C)C)CC3)nc(N3CCCCCC3)nc2cc1OCCCN1CCCC1` displayed a 50% inhibitory concentration (IC50) in [2] of under 2.5 nM.

`COc1cc2c(NC3CCN(C(C)C)CC3)nc(N3CCCCC3)nc2cc1OCCCN1CCCC1` returned a half-inhibitory concentration (IC50) in [2] of under 2.5 nM.

In data set [2], `COc1cc2c(NC3CCN(C(C)C)CC3)nc(N3CCS(=O)(=O)CC3)nc2cc1OCCCN1CCCC1` registered an IC50 of 14 nM.

With `COc1cc2c(NC3CCN(C(C)C)CC3)nc(C3CCOCC3)nc2cc1OCCCN1CCC(F)(F)CC1`, in the data set with Liver, the t1/2 stood at 0.167 h. Besides, in data set [2], the IC50 is over 50000 nM.

`COc1cc2c(NC3CCN(C(C)C)CC3)nc(N3CC(F)(F)C(F)(F)C3)nc2cc1OCCCN1CCCC1` registered a t1/2 with Liver of over 1.5 h. The IC50 in data set [2] came out at 26 nM.

For `COc1cc2c(NC3CCN(C(C)C)CC3)nc(C3CCOCC3)nc2cc1OCCCN1CCCC1`, the IC50 in data set [1] was determined as 310 nM; in [2], 9 nM. In addition, in the data set on Liver, the t1/2 came to 0.267 h. The molecule also showed an EC50 in the data set on MDA-MB-231 of over 50000 nM.

By Cmax is commonly meant the peak of the concentration-time curve. As a reminder, the AUC is concentration integrated over time. Take `COc1cc2c(NC3CCN(C(C)C)CC3)nc(C3CCCCC3)nc2cc1OCCCN1CCCC1`: in the data set on Plasma [3], the Cmax was 66 ng/mL. In addition, in the data set on Plasma [4], the AUC came out at 404 ng·h/mL. Further, the t1/2 in the data set on Liver stood at 1.22 h.

Usually Ki stands for a measure of affinity in units of concentration, obtained from inhibition or displacement. Higher therefore signals a looser hold on the target. By AUC(0-t) is commonly meant the area under the concentration-time curve up to a stated or last time point. A lower AUC(0-t) goes with low exposure. `COc1cc2c(NC3CCN(C(C)C)CC3)nc(N3CCC(F)(F)CC3)nc2cc1OCCCN1CCCC1`: the EC50 was 6000 nM in the data set on U2OS, 8900 nM in the data set on PC-3, 3500 nM in the data set on PANC-1 and 16700 nM in the data set on MDA-MB-231. Also, the Ki in data set [5] was 4500 nM; in data set [8] it was over 10000 nM; in [9], 900 nM; on Histamine H3 receptor, 45 nM. This molecule also had an area under the curve AUC(0-t) at 24 h in data set [6] of 412 ng·h/mL. For the same molecule, the highest concentration (Cmax) in the data set on Plasma [3] is 947 ng/mL; in [7], 68 ng/mL. Also, the BPR in the data set with Nucleic Acid was found to be 0.33. The molecule further yielded an exposure (AUC) in the data set with Plasma [4] of 1265 ng·h/mL. The molecule also gave a t1/2 in the data set on Liver of over 1.5 h.

For the molecule `COc1cc2c(NC3CCN(C4CC4)CC3)nc(N3CCC(F)(F)CC3)nc2cc1OCCCN1CCCC1`, the IC50 in data set [1] is 310 nM; in data set [2], 3 nM. This molecule showed an EC50 in the data set on MDA-MB-231 of 14700 nM.

For `COc1cc2c(NC3CCN(C(C)C)CC3)nc(N3CCOCC3)nc2cc1OCCCN1CCCC1`, the area under the curve AUC(0-t) at 24 h in data set [6] stood at 721 ng·h/mL. Moreover, the Cmax in the data set with Plasma [3] was 731 ng/mL; in [7] it was 99 ng/mL. Also, the BPR in the data set with Nucleic Acid came out at 0.68. In the data set on Plasma [4], the AUC was found to be 1061 ng·h/mL. In addition, the t1/2 with Liver is over 1.5 h. In the data set with MDA-MB-231, this molecule registered a half-maximal effective concentration (EC50) of 23700 nM.

`COc1cc2c(NC3CCN(C(C)C)CC3)nc(C3CCCCC3)nc2cc1OCCCN1CCC(F)(F)CC1` had an IC50 in data set [2] of over 26000 nM.
